Values of other authors as cited in patent US20220184026A1, “COMPOSITIONS OF FULVIC ACID AND CANNABINOID AND USES THEREOF” (Omni Bioceutical Innovations, Inc., priority 2019, published 2022).
Where two headings read alike, the source gives them in different places.

Tested on: chronic wounds
Parameters: key: N.S. = not statistically significant

Question: With interleukin-1B [IL-1B] as the substance, how does the Results (Robson et al., pressure wounds (n=25), 0.01, 0.1, and 1 μg/cm^2 daily) read?
Answer: N.S.

Question: Which Results (Rasmussen et al., venous wounds (n=37), 1 IU/cm^2 per week) does the source give for human growth hormone [HGH] here?
Answer: N.S.

Question: Which Results (Richard et al., diabetic wounds (n=17), 0.25 to 0.75 μg/cm^2 daily) does the source give for basic fibroblast growth factor [bFGF] here?
Answer: N.S.

Question: And the Results (Robson et al., pressure wounds (n=50), 1, 5, and 10 μg/cm^2)?
Answer: N.S.

Question: For “granulocyte-macrophage colony-stimulating factor [GM-CSF]”, which Results (da Costa et al., venous + arterial wounds (n=25), 400 μg injected once around the wound) is on record?
Answer: N.S.

Question: Which Results (Falanga et al., venous wounds (n=44), 10 μg/mL twice per day) does the source give for “epidermal growth factor (NSDSECPLSHDGYCLHDGVCMYIEALDKYACNCVVGYIGERCQYRDLKWWELR; not fully specified; Epidermal growth factor; UniProt P01133 971-1023, looked up) [EGF]” here?
Answer: N.S.
